The source of these data is patent publication EP1920756A1, “Cosmetic matrix for a preservative-free cosmetic formulation” (SYRIO PHARMA S.P.A., priority 2006, dated 2008).

Data set [1] relates to stabilized human keratinocytes (HaCaT cells). The data set can be described thus: Cytotoxicity evaluation with MTT method (UNI EN ISO 10993-5 rule). The data set is classed as cell-based. The protocol:
The test consisted in evaluating the cytotoxicity of the moisturizing cream […] aimed to be used on skin or on mucosae following the UNI EN ISO 10993-5 rule concerning the biological evaluation of medical devices. The cytotoxicity test was carried out towards the keratinocyte, the main cell component of skin and mucosae. […] The method is based on the fact that the mitochondrial dehydrogenases of viable cells are able to cleave the tetrazolium ring of MTT, leading to the formation of purple formazane crystals, which are insoluble in water. The crystals are dissolved in acidified isopropanol and the resulting purple solution is measured spectrophotometrically. An increase or decrease in viable cell number results in a concomitant change in the amount of formazan which is forming and can be considered as an indication of the degree of cytotoxicity caused by the exposure to the tested substances. The cell model employed for the in vitro test consisted of stabilized human keratinocytes (HaCaT cells). Cells were cultured in 24-well plates for 24 hours in DMEM + 10% FCS. Fresh culture medium was then added, supplemented with 10% FCS and containing a sample of the product to be tested so as to reach 6 final dilutions ranging from 5 to 0.15 mg/ml. For each sample of the cream […], three replica were performed. Untreated cells were used as negative control, and as positive control cells were treated with a surfactant with known toxicity, i.e. Sodium Lauryl Sulphate briefly referred to as SLS, dissolved in the culture medium in concentrations ranging from 0.5 mg/ml to 0.03 mg/ml. Specifically, samples with SLS amounts equal to 0.5, 0.25, 0.12, 0.06 and 0.03 mg/ml and […] amounts of 5, 2.5, 1.25, 0.6, 0.3, 0.15 mg/ml were prepared. At the end of treatment, the citotoxicity test (MTT) was carried out. The cells were then washed with washing solution (Dulbecco's Phosphate Buffered Saline). After removal of the solution, the MTT-culture medium was added to each well and the cells were incubated at 37°C. At the end of the incubation period, the MTT-culture medium was removed and a MTT solubilizing solution was added to each well. The plate was then stirred on a plate stirrer, while ensuring that all the crystals were dissolved and had formed a homogeneous solution. The absorbance was then read with a chromatometer equipped with a plate reader, by subtracting background reading. The result was expressed as: % cell survival = (OD treated cells × 100)/(OD untreated cells) [formula] […]

The next data set deals with CD80 (B7.1). The following applies: for CD80 (MFI*): THP-1, 48 hours, corrected by the negative control. The procedure: (§1) The test consisted in evaluating the pro-sensitising stimulus on human monocytes. It was deemed appropriate to use a cell model to evaluate the immunological reactivity of typical immunological cells (monocytes in this case) exposed for a prolonged time (48h) to the tested product in two different concentrations
(§2) The test was thus performed on a monocytes cell line named THP-1, as such a cell type is highly involved in the immunological responses of skin, which is the target organ of the tested cream. […] Nickel is in fact able to trigger in vivo allergising-type immunological reactions (contact sensitising).
(§3) The technique is based on the fact that the recognition of the antigen by the TCR (T Cell Receptor) of T lymphocytes (signal 1) is not functional to the maturation of an effective immune response, if it doesn't occur at the membrane of an antigen-presenting cell able to provide an additional signal (signal 2 or costimulus) qualitatively necessary for the definition of the response type (humoral, cellular, etc). Both B7.1 and B7.2 (collectively: B7) are membrane glycoproteins which are present on the surface of several antigen-presenting cells (dendritic cells, Langerhans cells, monocytes/macrophages, other cell lines such as keratinocytes) and serve as costimula. In fact, both these molecules are ligands of a glycoprotein named CD28, which are present on the T lymphocyte membrane. The triggering of the ligand/receptor system CD28B7 avoids the T cell apoptosis (i.e. the programmed cell death) and cooperates to sustain their proliferation and differentiation. In the first steps of the "physiological" immune response, B7.2 is expressed constitutively and modulates both the Th1 and Th2 responses.
(§4) An increase in expression of these co-stimulatory molecules on monocytes is thus a signal of activation of an immune response the exposure in consequence of a potentially allergising antigen. Functionally, in fact, the expression of co-stimulatory molecules on this cell type corresponds to the competence acquisition for expressing the antigen in the typical location (skin in this case) in which a contact sensitization occurs in vivo.
(§5) They were subjected to a preliminary cytotoxicity screening on THP-1 cells to determinate the concentration at which the substance could be used in vitro without causing cell death, event which causes false results.
(§6) Cell growth culture medium exposed to the same experimental conditions was used as a negative control. […]
(§7) After exposure, the cells were examined for their viability by staining with Trypan Blue dye and by observing under microscope in a corpuscle-counter chamber, collected, washed in a isotonic buffer (PBS) and then marked with a fluoresceinated anti-B7.1 or B7.2 antibody. After further washings to remove the excess antibody, the cells were feeded in a flux cytofluorimeter (FACS, Fluorescence Activated Cell Sorter, Becton Dickinson, Mountain View, CA) for the MFI (Mean Fluorescence Intensity) evaluation, which was proportional to the number of molecules marked per cell and therefore representative of the expression level of the tested co-stimulatory molecules.
(§8) As control (basal fluorescence), the MFI of both untreated THP-1 cells (apart from washings in PBS) and THP-1 cells reacted with a fluoresceinated monoclonal antibody (such as the anti-B7.1 and anti-B7.2), but of irrelevant specificity (isotype-matched control) was evaluated.

In another data set the test system is CD86 (B7.2). The following applies: THP-1, 48 hours, corrected by the negative control. The protocol:
as §1, §2, §3, §4, §5, §6, §7, §8

The conditions of data set [2]: in contact with healthy and intact skin; cited from earlier work.

Where “and” joins values, the source holds several entries; their conditions need not be identical. Equal entries are not always repeated. Where two headings read alike, the source gives them in different places.

For `CCCCCCCCCCCCOS(=O)(=O)[O-].[Na+]` [SLS, Sodium Lauryl Sulphate], the “Cell viability % (vs negative control)” value in data set [1] (Dose 0.03 mg/ml, MTT, Sulphate) was 87.6% and 94.7% and 98.5% and 92.7%; in data set [1] (Dose 0.06 mg/ml, MTT, Sulphate), 61.0% and 79.6% and 76.7% and 73.9%; in data set [1] (Dose 0.12 mg/ml, MTT, Sulphate), 2.5% and 3.9% and 0.2% and 1.9%; in data set [1] (Dose 0.25 mg/ml, MTT, Sulphate), 2.3% and 2.9% and 0.1% and 1.5%; in data set [1] (Dose 0.5 mg/ml, MTT, Sulphate), 2.3% and 2.2% and 0.2% and 1.2%. Also, in data set [1] (Homo sapiens, read-out: concentration of 50% inhibition of cell growth (IC50), HaCaT, MTT, theoretical value from regression curve of dose-response), the IC50 turned out to be 60 µg/mL. The “concentration of 50% inhibition of cell growth (IC50)” value in data set [1] (MTT, theoretical value from regression curve of dose-response, Sulphate) is 70 µg/mL and 67 µg/mL.
Regarding `O.O.O.O.O.O.O=S(=O)([O-])[O-].[Ni+2]` [Nickel sulphate, Nickel Sulphate (NiSO46H2O)], the “increase in CD80, with respect to untreated controls” value in the data set with CD80 (B7.1) (4 µg/ml, data not shown) was “detectable increase”. Further, the “CD80 (MFI*)” value in the data set on CD80 (B7.1) (10 µg/ml) was 19.85 and 18.33; with CD80 (B7.1) (20 µg/ml), 29.00 and 33.48. Besides, the “CD86 (MFI*)” value was 37.35 and 33.26 in the data set with CD86 (B7.2) (10 µg/ml); 77.12 and 87.92 in the data set with CD86 (B7.2) (20 µg/ml). The “concentration able to cause an allergic reaction in most of the sensitive subjects” value in data set [2] was “above 100 ppm”.
